The source of these data is patent publication US20240343762A1, “USE OF PROTON PUMP MODULATOR IN PREPARING REAGENT” (SHANGHAI QUIETD BIOTECHNOLOGY CO. LTD., priority 2021, published 2024).

In experiment [1] the test system is SH-SY5Y cells. The experiment is described as follows: Rotenone cell model (PD) with immunoblotting of α-synuclein oligomer. It counts as cell-based. As to conditions: 5 μM rotenone, QD202 at 0.1 μM, 0.2 μM, 0.5 μM and 1 μM, 24 hours. As for the experimental part:
The rotenone cell model is a commonly used Parkinson's disease (PD) in vitro cell model.
SH-SY5Y cells are cultured in complete medium composed of high-glucose DMEM and 10% fetal bovine serum, placed in an incubator maintained at 37° C. and 5% carbon dioxide for culture. On the day before the rotenone model is established, cells are passaged from 60 mm dishes to 6-well plates, and QD202 treatment experiments are conducted 24 hours after cell passage.
After 24 hours of SH-SY5Y culture, the rotenone model is established. A mixed solution containing 5 μM rotenone and various concentrations of QD202 (0, 0.1 μM, 0.2 μM, 0.5 μM, 1 μM, 5 μM, 10 μM) is prepared with complete medium. SH-SY5Y cells are removed from the culture medium, the mixed solution is added and mixed well, and incubated in the incubator for 24 hours.
After 24 hours of QD202 treatment, the cells are placed on ice, and 200 μL of cell lysis buffer containing protease inhibitors (25 mM Tris-HCL, 150 mM NaCl, 1 mM EDTA, 1% NP40, 5% Glycerol) is added. The cells are collected into the lysis buffer and the collected samples are rotated and lysed at 4° C. for 30 minutes.
The samples are centrifuged at 4° C. for 10 minutes, and the supernatant is collected. 180 μL of the supernatant is retained and 60 μL of 4×loading buffer is added. […]
In general terms: A western blot detects proteins with antibodies after separation by electrophoresis.

Experiment [2] addresses ATP6V1B2 (Mus musculus, UniProt P62814). The experiment is described as follows: Immunoprecipitation from hippocampus of mice given biotin-labeled polypeptide, with SDS-PAGE and protein mass spectrum identification. Type of experiment: binding. Also noted: from tissue; host or cells: mouse brain hippocampus. As to conditions: biotin-labeled polypeptide 6.25 mg/kg through veins, hippocampus collected after 4 h, compared with disordered control QD201. How it is done: (1) Polypeptide QD202 was synthesized according to the amino acid sequence as set forth in SEQ ID NO. 1, and a biotin label was added at the […] of the polypeptide; and the amino acid sequence of the QD202 was randomly disorganized, a disordered control QD201 (the amino acid sequence as set forth in SEQ ID NO. 7) was synthesized, and the biotin label was added at the […] of the polypeptide. The polypeptide QD202 and the QD201 were dissolved by PBS, and a storage solution is prepared with the concentration of 500 μM.
(2) The biotin-labeled QD202 and QD201 were respectively feed to 2 C57BL/6 mice of 8 months old through veins at the dosage of 6.25 mg/kg. The mice were anesthetized after 4 h, brain hippocampus tissues were collected, a lysis buffer solution was added, the tissues were crushed by mechanical grinding, and then supernatant was collected after centrifuging. The biotin antibody and Protein G agarose beads were added into the supernatant for immunoprecipitation, the test steps referred to Using Antibodies: A Laboratory Manual [J]. Science Press, 2002. The proteins were eluted by a protein loading buffer solution. […]

ATP6V1B2, sequence (P62814 whole entry): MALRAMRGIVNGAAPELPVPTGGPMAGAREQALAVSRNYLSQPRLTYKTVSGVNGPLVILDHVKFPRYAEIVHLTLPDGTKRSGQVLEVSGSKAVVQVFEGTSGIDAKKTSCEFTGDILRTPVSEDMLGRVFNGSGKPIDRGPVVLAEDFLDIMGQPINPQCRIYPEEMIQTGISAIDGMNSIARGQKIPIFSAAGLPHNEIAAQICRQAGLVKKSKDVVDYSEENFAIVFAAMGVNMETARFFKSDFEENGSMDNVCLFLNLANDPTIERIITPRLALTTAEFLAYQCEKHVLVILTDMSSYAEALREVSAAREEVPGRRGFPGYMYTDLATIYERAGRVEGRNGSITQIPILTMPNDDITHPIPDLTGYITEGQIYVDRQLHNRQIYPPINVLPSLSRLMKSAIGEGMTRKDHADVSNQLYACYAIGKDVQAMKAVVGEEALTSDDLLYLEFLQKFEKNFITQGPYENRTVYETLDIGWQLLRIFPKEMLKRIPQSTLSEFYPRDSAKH

As for “QD202: polypeptide synthesized according to the amino acid sequence as set forth in SEQ ID NO. 1 (YGRKKRRQRRRSPVDVVCS; QD202)”, the “increase in α-synuclein oligomer caused by rotenone treatment” value in experiment [1] is reported as “dose-dependently reduce”. In addition, the “protein specifically bound to the polypeptide (mass spectrum identification)” value in experiment [2] is on record as “protein specifically bound to QD202 was ATP6V1B2”.
